Assay results: patent publication US20260027116A1, “Methods of Treating Chronic Graft-Versus-Host Disease Following Allogeneic Hematopoietic Stem Cell Transplantation” (Kadmon Corporation, LLC, priority 2022, published 2026)

Assays:
UGT1A9 = target: T1, UGT1A9 (Homo sapiens, UniProt O60656); assay: metabolism in vitro; format: in vitro ADME
T1 sequence (O60656 26-530): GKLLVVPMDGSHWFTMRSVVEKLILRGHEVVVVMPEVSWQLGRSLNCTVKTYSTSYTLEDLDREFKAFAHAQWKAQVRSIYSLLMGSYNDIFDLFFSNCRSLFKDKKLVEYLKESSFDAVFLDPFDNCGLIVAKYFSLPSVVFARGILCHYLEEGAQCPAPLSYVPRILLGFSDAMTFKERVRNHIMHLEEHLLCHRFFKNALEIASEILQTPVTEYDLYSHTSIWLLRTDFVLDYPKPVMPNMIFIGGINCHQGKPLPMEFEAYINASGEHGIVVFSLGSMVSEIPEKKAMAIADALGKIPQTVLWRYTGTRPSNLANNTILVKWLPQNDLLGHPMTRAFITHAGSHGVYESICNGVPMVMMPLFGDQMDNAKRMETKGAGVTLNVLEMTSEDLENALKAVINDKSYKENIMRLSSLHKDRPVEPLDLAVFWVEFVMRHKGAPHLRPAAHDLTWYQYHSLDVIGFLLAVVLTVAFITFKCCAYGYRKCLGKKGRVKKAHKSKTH

[1] = pharmacokinetics in healthy subjects (bioavailability, food effect, distribution, excretion); format: in vivo, human
cGVHD = assay: Example 2: corticosteroid and other immunosuppressant reduction; format: in vivo, human
Protocol: All responses were assessed by the study site investigators.

OATPIB1 = target: T2, OATPIB1 (Homo sapiens, UniProt Q9Y6L6); assay: transporter inhibition in vitro; format: in vitro ADME; conditions: at clinically relevant concentrations
T2 sequence (Q9Y6L6 1-691): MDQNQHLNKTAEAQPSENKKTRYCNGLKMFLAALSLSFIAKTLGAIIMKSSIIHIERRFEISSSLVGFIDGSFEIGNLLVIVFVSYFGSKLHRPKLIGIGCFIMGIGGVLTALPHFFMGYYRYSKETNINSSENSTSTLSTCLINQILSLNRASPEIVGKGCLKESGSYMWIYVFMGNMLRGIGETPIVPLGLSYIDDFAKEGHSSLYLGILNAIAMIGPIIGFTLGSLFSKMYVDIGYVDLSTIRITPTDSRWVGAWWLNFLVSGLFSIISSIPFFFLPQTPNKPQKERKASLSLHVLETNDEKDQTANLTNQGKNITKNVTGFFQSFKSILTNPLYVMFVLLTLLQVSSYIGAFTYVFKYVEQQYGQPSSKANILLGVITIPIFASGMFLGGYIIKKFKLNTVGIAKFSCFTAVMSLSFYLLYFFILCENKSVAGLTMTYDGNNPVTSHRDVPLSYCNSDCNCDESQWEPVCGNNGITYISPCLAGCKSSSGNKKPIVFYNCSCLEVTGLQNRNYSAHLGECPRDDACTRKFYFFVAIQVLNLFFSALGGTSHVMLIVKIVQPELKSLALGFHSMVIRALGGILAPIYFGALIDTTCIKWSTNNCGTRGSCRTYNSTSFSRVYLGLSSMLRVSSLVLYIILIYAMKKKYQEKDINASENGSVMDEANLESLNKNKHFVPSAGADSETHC

In the case of `CC(C)NC(=O)COc1cccc(-c2nc(Nc3ccc4[nH]ncc4c3)c3ccccc3n2)c1` [Belumosudil, 2-{3-[4-(1H-indazol-5-ylamino)-2-quinazolinyl]phenoxy}-N-(propan-2-yl) acetamide], the “metabolism by UGT1A9” value (UGT1A9) was “to a lesser extent”, the “food effect, Cmax increase” value ([1]; high-fat high-calorie meal vs fasted) was 2.2 times and the “radioactivity recovered in feces” value ([1]; single oral radiolabeled dose) was 85%. The “radioactivity recovered in urine” value ([1]; single oral radiolabeled dose) was “less than 5%”, the “recovered in feces as unchanged” value ([1]; single oral radiolabeled dose) was 30% and the “Mean change in CS dose from baseline, Nonresponder” value (from here on “Mean change … Nonresponder”) (cGVHD; 200 mg daily) was −22%. The “Mean change in CS dose from baseline, Overall” value (shortened to “Mean change … Overall”) (cGVHD; 200 mg daily) was −43%, the “Mean change in CS dose from baseline, Responder” value (cGVHD; 200 mg daily) was −49% and the CS discontinuation (cGVHD; 200 mg daily (n = 66)) was 13 (20) n (%). For the same compound, the “Median CS reduction from baseline to greatest reduction” value (shortened to “Median CS reduction from baseline”) (cGVHD; 200 mg daily (n = 66)) was 38%, the “Proportion with CS reduction” value (cGVHD; 200 mg daily (n = 66)) was 42 (64) n (%) and the “Mean change … Nonresponder” value (cGVHD; 200 mg twice daily) was −10%. For the same compound, the “Mean change … Overall” value (cGVHD; 200 mg twice daily) was −48%, the “Mean change in CS dose from baseline, Responder” value (cGVHD; 200 mg twice daily) was −58% and the CS discontinuation (cGVHD; 200 mg twice daily (n = 66)) was 15 (23) n (%). The “Median CS reduction from baseline” value (cGVHD; 200 mg twice daily (n = 66)) was 50%, the “Proportion with CS reduction” value (cGVHD; 200 mg twice daily (n = 66)) was 44 (67) n (%) and the “subjects who discontinued calcineurin inhibitor (CNI) therapy” value (cGVHD; Example 2) was 22%. The “subjects who discontinued mycophenolate mofetil” value (cGVHD; Example 2) was 21%, the “subjects who discontinued sirolimus” value (cGVHD; Example 2) was 20% and the “subjects who reduced corticosteroid dose” value (cGVHD; Example 2) was 65%. For the same compound, the “mean corticosteroid dose reduction” value (cGVHD; Example 2, mITT) was 45%, the “mean corticosteroid dose reduction” value (cGVHD; Example 2, responders) was 54% and the “Mean change … Nonresponder” value (cGVHD; Total) was −16%. For the same compound, the “Mean change … Overall” value (cGVHD; Total) was −45%, the “Mean change in CS dose from baseline, Responder” value (cGVHD; Total) was −54% and the “Median CS reduction from baseline” value (cGVHD; Total (N = 132)) was 50%. The “Proportion with CS reduction” value (cGVHD; Total (N = 132)) was 86 (65) n (%) and the “inhibition of OATPIB1” value (OATPIB1) was “inhibits”.
